Test results from ChEMBL document CHEMBL1697723, “A predictive ligand-based Bayesian model for human drug-induced liver injury” (Drug Metab Dispos, 2010).
Starred links: 1 amine or outer side, 2 acyl side, 3 side chain; linkers in the order of their positions; H or OH if unused. Positions of bridges follow the written chain, without caps; N, C: chain ends. Non-standard residues stand in square brackets, D forms with d. Residues, ends and D or L forms follow the SMILES beside them. Adda = CO[C@@H](Cc1ccccc1)[C@@H](C)/C=C(C)/C=C/[C@H](N[*:1])[C@H](C)C(=O)[*:2]; dAsp(3S-Me) = C[C@H](C(=O)[*:3])[C@@H](N[*:1])C(=O)[*:2]; d(γGlu) = O=C(O)[C@@H](CCC(=O)[*:2])N[*:1]; NMeDha = C=C(NC)C(=O)O

The compounds below were run on Hepatotoxicity (assay: Human drug-induced liver injury (DILI) modelling dataset from Ekins et al). Conditions: not given.

Structure (SMILES)	Hepatotoxicity
COC(=O)Nc1nc2ccc(C(=O)c3ccccc3)cc2[nH]1 [MEBENDAZOLE]	DILI positive (training set)
Cc1ccc(Cl)c(Nc2ccccc2C(=O)[O-])c1Cl.O.[Na+] [MECLOFENAMATE SODIUM]	DILI positive (training set)
CC(=O)O[C@]1(C(C)=O)CC[C@H]2[C@@H]3C[C@H](C)C4=CC(=O)CC[C@]4(C)[C@H]3CC[C@@]21C [MEDROXYPROGESTERONE ACETATE]	DILI negative (training set)
COc1ccc2[nH]cc(CCNC(C)=O)c2c1 [MELATONIN]	DILI negative (training set)
Cc1cnc(NC(=O)C2=C(O)c3ccccc3S(=O)(=O)N2C)s1 [MELOXICAM]	DILI negative (test set)
CC12CC3CC(C)(C1)CC(N)(C3)C2 [MEMANTINE]	DILI negative (training set)
CC1=CC(=O)c2ccccc2C1=O [MENADIONE]	DILI positive (test set)
CCC1(c2ccccc2)C(=O)NC(=O)N(C)C1=O (stereo unspecified) [MEPHOBARBITAL]	DILI positive (test set)
CCCC(C)(COC(N)=O)COC(N)=O [MEPROBAMATE]	DILI positive (test set)
C#C[C@]1(O)CC[C@H]2[C@@H]3CCc4cc(OC)ccc4[C@H]3CC[C@@]21C [MESTRANOL]	DILI positive (test set)
CC(=O)Nc1cccc(O)c1 [METACETAMOL]	DILI negative (training set)
CC(C)NCC(O)c1cc(O)cc(O)c1.CC(C)NCC(O)c1cc(O)cc(O)c1.O=S(=O)(O)O (stereo unspecified) [METAPROTERENOL SULFATE]	DILI positive (training set)
C=C1c2cccc(O)c2C(=O)C2=C(O)[C@]3(O)C(=O)C(C(N)=O)=C(O)[C@@H](N(C)C)[C@@H]3[C@@H](O)[C@H]12.Cl [METHACYCLINE HYDROCHLORIDE]	DILI positive (training set)
CN(Cc1cnc2nc(N)nc(N)c2n1)c1ccc(C(=O)N[C@@H](CCC(=O)O)C(=O)O)cc1 [METHOTREXATE]	DILI positive (training set)
COc1ccc(OC)c(C(O)C(C)N)c1.Cl (stereo unspecified) [METHOXAMINE HYDROCHLORIDE]	DILI negative (training set)
COCC(=O)O [METHOXYACETIC ACID]	DILI positive (test set)
C[C@](N)(Cc1ccc(O)c(O)c1)C(=O)O [METHYLDOPA]	DILI positive (test set)
CC[C@@H](CO)NC(=O)[C@@H]1C=C2c3cccc4[nH]cc(c34)C[C@H]2N(C)C1.O=C(O)/C=C\C(=O)O [METHYLERGONOVINE MALEATE]	DILI negative (training set)
COC(=O)C(c1ccccc1)C1CCCCN1 (stereo unspecified) [METHYLPHENIDATE]	DILI positive (test set)
CC[C@@H](CO)NC(=O)[C@@H]1C=C2c3cccc4c3c(cn4C)C[C@H]2N(C)C1.O=C(O)/C=C\C(=O)O [METHYSERGIDE MALEATE]	DILI negative (training set)
Cc1ccccc1N1C(=O)c2cc(S(N)(=O)=O)c(Cl)cc2NC1C (stereo unspecified) [METOLAZONE]	DILI positive (test set)
Cc1ncc([N+](=O)[O-])n1CCO [METRONIDAZOLE]	DILI positive (training set)
CN1CCN2c3ccccc3Cc3ccccc3C2C1 (stereo unspecified) [MIANSERIN]	DILI positive (test set)
COCC(=O)O[C@]1(CCN(C)CCCc2nc3ccccc3[nH]2)CCc2cc(F)ccc2[C@@H]1C(C)C [MIBEFRADIL]	DILI negative (test set)
Clc1ccc(COC(Cn2ccnc2)c2ccc(Cl)cc2Cl)c(Cl)c1 (stereo unspecified) [MICONAZOLE]	DILI negative (training set)
C=C1C(=O)N[C@H](C)C(=O)N[C@@H](CC(C)C)C(=O)N[C@@H](C(=O)O)[C@H](C)C(=O)N[C@@H](CCCNC(=N)N)C(=O)N[C@@H](/C=C/C(C)=C/[C@H](C)[C@H](Cc2ccccc2)OC)[C@H](C)C(=O)N[C@@H](C(=O)O)CCC(=O)N1C [MICROCYSTIN-LR] (R[Adda][d(γGlu)][NMeDha][dA]L[dAsp(3S-Me)]-OH; lactam N-7)	DILI positive (test set)
CN(C)c1ccc(O)c2c1C[C@H]1C[C@H]3[C@H](N(C)C)C(O)=C(C(N)=O)C(=O)[C@@]3(O)C(O)=C1C2=O.Cl [MINOCYCLINE HYDROCHLORIDE]	DILI positive (test set)
Cl.Cl.O=C1c2c(O)ccc(O)c2C(=O)c2c(NCCNCCO)ccc(NCCNCCO)c21 [MITOXANTRONE HYDROCHLORIDE]	DILI positive (training set)

Structure (SMILES)	Hepatotoxicity
CCc1c(C)[nH]c2c1C(=O)C(CN1CCOCC1)CC2.Cl (stereo unspecified) [MOLINDONE HYDROCHLORIDE]	DILI positive (training set)
C[C@@H]1C[C@H]2[C@@H]3CCC4=CC(=O)C=C[C@]4(C)[C@@]3(Cl)[C@@H](O)C[C@]2(C)[C@@]1(OC(=O)c1ccco1)C(=O)CCl [MOMETASONE FUROATE]	DILI negative (test set)
C[C@H]1C(=O)O[C@@H]2CCN3CC=C(COC(=O)[C@](C)(O)[C@]1(C)O)[C@H]23 [MONOCROTALINE]	DILI positive (training set)
CC(C)(O)c1ccccc1CC[C@@H](SCC1(CC(=O)O)CC1)c1cccc(/C=C/c2ccc3ccc(Cl)cc3n2)c1 [MONTELUKAST]	DILI negative (training set)
CCOC(=O)Nc1ccc2c(c1)N(C(=O)CCN1CCOCC1)c1ccccc1S2.Cl [MORICIZINE HYDROCHLORIDE]	DILI positive (test set)
CO[C@@]1(NC(=O)C(C(=O)[O-])c2ccc(O)cc2)C(=O)N2C(C(=O)[O-])=C(CSc3nnnn3C)CO[C@@H]21.[Na+].[Na+] (stereo partly specified) [MOXALACTAM DISODIUM]	DILI negative (test set)
CN(C)N=O [N-NITROSODIMETHYLAMINE]	DILI positive (test set)
CC(C)(C)NCC(O)COc1cccc2c1CC(O)C(O)C2 (stereo unspecified) [NADOLOL]	DILI negative (training set)
CCOc1ccc2ccccc2c1C(=O)N[C@@H]1C(=O)N2[C@@H]1SC(C)(C)[C@@H]2C(=O)[O-].O.[Na+] [NAFCILLIN SODIUM]	DILI negative (test set)
CCn1cc(C(=O)O)c(=O)c2ccc(C)nc21 [NALIDIXIC ACID]	DILI positive (training set)
O=C1CC[C@@]2(O)[C@H]3Cc4ccc(O)c5c4[C@@]2(CCN3CC2CC2)[C@H]1O5 [NALTREXONE]	DILI positive (training set)
CCc1nn(CCCN2CCN(c3cccc(Cl)c3)CC2)c(=O)n1CCOc1ccccc1 [NEFAZODONE]	DILI positive (test set)
COC(=O)C1=C(C)NC(C)=C(C(=O)OCCN(C)Cc2ccccc2)C1c1cccc([N+](=O)[O-])c1.Cl (stereo unspecified) [NICARDIPINE HYDROCHLORIDE]	DILI positive (training set)
COC(=O)C1=C(C)NC(C)=C(C(=O)OC)C1c1ccccc1[N+](=O)[O-] [NIFEDIPINE]	DILI positive (training set)
COCCOC(=O)C1=C(C)NC(C)=C(C(=O)OC(C)C)C1c1cccc([N+](=O)[O-])c1 (stereo unspecified) [NIMODIPINE]	DILI positive (training set)
COC(=O)C1=C(C)NC(C)=C(C(=O)OCC(C)C)C1c1ccccc1[N+](=O)[O-] (stereo unspecified) [NISOLDIPINE]	DILI negative (training set)
COC(=O)Nc1nc2ccc(C(=O)c3cccs3)cc2[nH]1 [NOCODAZOLE]	DILI negative (training set)
CN1Cc2c(N)cccc2C(c2ccccc2)C1 (stereo unspecified) [NOMIFENSINE]	DILI positive (training set)
CO[C@@H]1[C@@H](OC(N)=O)[C@@H](O)[C@H](Oc2ccc3c(O)c(NC(=O)c4ccc(O)c(CC=C(C)C)c4)c(=O)oc3c2C)OC1(C)C [NOVOBIOCIN]	DILI positive (training set)
CCCCC(CC)COC(=O)C=Cc1ccc(OC)cc1 (stereo unspecified) [OCTINOXATE]	DILI positive (test set)
CCCc1nc(C(C)(C)O)c(C(=O)O)n1Cc1ccc(-c2ccccc2-c2nnn[nH]2)cc1 [OLMESARTAN]	DILI negative (test set)
Cc1ccccc1C(OCCN(C)C)c1ccccc1.O=C(O)CC(O)(CC(=O)O)C(=O)O (stereo unspecified) [ORPHENADRINE CITRATE]	DILI negative (training set)
O=C(O)CCc1nc(-c2ccccc2)c(-c2ccccc2)o1 [OXAPROZIN]	DILI positive (test set)
CCCOc1ccc2nc(NC(=O)OC)[nH]c2c1 [OXIBENDAZOLE]	DILI positive (training set)
CC[N+](C)(CC)CCOC(=O)C(O)(c1ccccc1)C1CCCCC1 (stereo unspecified) [OXYPHENONIUM]	DILI negative (training set)
NCCC(O)(P(=O)(O)O)P(=O)(O)O [PAMIDRONIC ACID]	DILI negative (training set)
C#CCN(C)Cc1ccccc1 [PARGYLINE]	DILI negative (test set)

Same assay, conditions: Liver

Structure (SMILES)	Hepatotoxicity
CNCCCC12CCC(c3ccccc31)c1ccccc12 [MAPROTILINE]	DILI negative (training set)
Cc1cccc(Nc2ccccc2C(=O)O)c1C [MEFENAMIC ACID]	DILI positive (training set)
CN1CCCCC1CCN1c2ccccc2Sc2ccc([S+](C)[O-])cc21.O=S(=O)(O)c1ccccc1 (stereo unspecified) [MESORIDAZINE BESYLATE]	DILI positive (training set)
CN(C)C(=N)N=C(N)N [METFORMIN]	DILI negative (test set)
CC1(C)S[C@@H]2[C@H](NC(=O)[C@H](NC(=O)N3CCN(S(C)(=O)=O)C3=O)c3ccccc3)C(=O)N2[C@H]1C(=O)[O-].[Na+] [MEZLOCILLIN SODIUM]	DILI positive (test set)
COc1ccc2cc([C@H](C)C(=O)O)ccc2c1 [NAPROXEN]	DILI negative (test set)
O=C1CN(/N=C/c2ccc([N+](=O)[O-])o2)C(=O)N1 [NITROFURANTOIN]	DILI positive (test set)
C#CC1(O)CC[C@H]2[C@@H]3CCC4=CC(=O)CC[C@@H]4[C@H]3CC[C@@]21CC (stereo partly specified) [NORGESTREL]	DILI positive (training set)
CNCCC=C1c2ccccc2CCc2ccccc21.Cl [NORTRIPTYLINE HYDROCHLORIDE]	DILI positive (training set)
O=S(=O)(O)O.Oc1cccc2cccnc12.Oc1cccc2cccnc12 [OXYQUINOLINE SULFATE]	DILI positive (test set)
CC(=O)O[C@H]1C(=O)[C@@]2(C)[C@H]([C@H](OC(=O)c3ccccc3)[C@]3(O)C[C@H](OC(=O)[C@H](O)[C@@H](NC(=O)c4ccccc4)c4ccccc4)C(C)=C1C3(C)C)[C@]1(OC(C)=O)CO[C@@H]1C[C@@H]2O [PACLITAXEL]	DILI positive (test set)
